“Also recorded” adds a separate entry of the source.
Legend:
Wistar rats = assay: Circadian rhythm measuring method: amount of daily (spontaneous) movements of rats counted with an infrared sensor under a 12-hour light / 12-hour dark cycle; assay type: in vivo, rat; details: for ratio of activity in the light period to the total amount of movements (averages): Example 2, vs control group, astaxanthin diet, melatonin water (about 1 mg/day) or both, FIG. 5; for enhancive effect on the circadian rhythm normalizing action of melatonin: Example 3
Source text: To search for a substance having the action of normalizing the circadian rhythm, the inventors of the present invention conducted studies on various substances with the use of a circadian rhythm measuring method, with the amount of spontaneous movement of rats as an indicator, in an environment controlled to have a 12-hour light period and a 12-hour dark period. As a result, the inventors have clarified that astaxanthin, which is one of carotenoids, and/or its ester has a circadian rhythm normalizing action. […] These findings led them to accomplish the present invention. The influence of astaxanthin on daily movements was investigated in rats. Rats have the habit of resting (sleeping) mainly in the light period, and acting in the dark period. The circadian rhythm of rats was investigated by measuring the amount of daily movements continuously, and examining changes over time in the amounts of movements in the light period and the dark period. Four-week-old male Wistar rats (purchased from Nippon […]) were preliminarily reared for one week, and subjected to experiments at the age of 5 weeks. The rats were randomly divided into two groups (5 to 6 rats/group), and one of the groups was used as a control diet (low tocopherol) group, while the other group was used as an astaxanthin diet group, each group receiving the designated diet for 4 weeks. The animals were reared in animal cages kept at room temperature of 23.5±1° C. and a humidity of 55±5%, and the feed and water were provided ad libitum. Astaxanthin used was astaxanthin extracted from […] purified (an oil containing 15% of astaxanthin as a free compound; a product of Itano Refrigerating Co.). The rats were individually reared in a box equipped with an infrared sensor, and the amount of movements was counted with the infrared sensor. That is, each time the animal passed the infrared sensor, the passage was taken as one count. The counts taken were accumulated, and expressed as the amount of movements (counts). Statistical treatment was performed using ANOVA and student t-test. A period of 1 week after start of rearing with the experimental diet was set as a tuning period in which the animal was tuned to a 12-hour dark period and a 12-hour light period. Then, from the 2nd week, the amount of daily movements was continuously measured for 3 weeks. The total amount of movements, and the ratio of movements in the light period to the total amount of movements (i.e., the amount of movements in the light period/the total amount of movements×100 (%)) were calculated every day. […] The averages of the ratio (%) of movements in the light period were compared in both groups (FIG. 3). […] Four-week-old male Wistar rats (purchased from Nippon […]) were preliminarily reared for one week, and subjected to experiments at the age of 5 weeks. The rats were randomly divided into two groups (10 to 11 rats/group), and the two groups were given a control diet (low tocopherol diet) and an astaxanthin diet (Table 1), respectively. Each group was further divided into two groups (5 to 6 rats/group), which received distilled water and melatonin water, respectively, for 4 weeks. The animals were reared in animal cages kept at room temperature of 23.5±1° C. and a humidity of 55±5%, and the feed and water were provided ad libitum. Melatonin was dissolved in water at a concentration of 0.5 mg/100 ml, and the solution was given ad lib, as drinking water. The intake of melatonin, calculated from the amount of water taken by rats, was about 1 mg/day. After start of rearing with the experimental diet, a tuning period of 1 week was provided. Then, the amount of movements of rats was measured as in Example 1 for 3 weeks to look into changes in the circadian rhythm. No differences were noted among the averages of the total amount of movements in the respective groups (FIG. 4). […]

[1] = Yamashita 1992; cited from earlier work
[2] = system: lipid peroxides in the brain; details: dose 1/100 the dose of α-tocopherol; Nishigaki et al. 1994; cited from earlier work
[3] = Example 4, tocopherol-deficient basic feed, FIG. 9

| SMILES | total amount of movements (day-to-day changes) (Wistar rats; Example 1, astaxanthin diet (0.3 g/kg of oil containing 15% astaxanthin) vs control low tocopherol diet, 3 weeks, FIG. 1) | average of the ratio (%) of movements in the light period (Wistar rats; Example 1, astaxanthin diet group vs control, FIG. 3) | ratio of movements in the light period to the total amount of movements (day-to-day changes) (Wistar rats; Example 1, astaxanthin diet vs control low tocopherol diet, 3 weeks, FIG. 2) | ratio of activity in the light period to the total amount of movements (averages) (Wistar rats) | enhancive effect on the circadian rhythm normalizing action of melatonin (Wistar rats; 0.0045% astaxanthin diet with melatonin water, FIG. 8) | total amount of movements (Wistar rats; Example 4, maximum dose of 1.5 g/kg diet, tocopherol-deficient basic feed, FIG. 10) | doses at which the decrease of the ratio of activity in the light period was significant (Wistar rats; [3]) [g/kg diet] | minimum dose at which the ratio of activity in the light period decreased (Wistar rats; [3]) [g/kg diet] | ratio of activity in the light period to the total amount of movements (dose dependency) (Wistar rats; Example 4, tocopherol-deficient basic feed, astaxanthin diets 0.15, 0.3, 0.6, 1.5 g/kg, FIG. 9) | antioxidant action compared with α-tocopherol [1] | increases in lipid peroxides in the brain caused by irradiation with 60Co [2] | enhancive effect on the circadian rhythm normalizing action of melatonin (Wistar rats; 0.001% tocopherol diet with melatonin water, FIG. 6) | enhancive effect on the circadian rhythm normalizing action of melatonin (Wistar rats; 0.005% tocopherol diet with melatonin water, FIG. 7) | enhancive effect on the circadian rhythm normalizing action of melatonin (Wistar rats; 0.005% tocopherol diet with melatonin water, FIG. 7, listed as tocopherol) |
| --- | --- | --- | --- | --- | --- | --- | --- | --- | --- | --- | --- | --- | --- | --- |
| CC1=C(/C=C/C(C)=C/C=C/C(C)=C/C=C/C=C(C)/C=C/C=C(C)/C=C/C2=C(C)C(=O)[C@@H](O)CC2(C)C)C(C)(C)C[C@H](O)C1=O [Astaxanthin, astaxanthin] | did not affect the total amount of movements | significant decrease in the ratio of movements in the light period | lowered the ratio of movements in the light period | tendency toward a decrease in the ratio of activity in the light period | enhance the circadian rhythm normalizing action of melatonin significantly; also recorded: more potent effect of enhancing the circadian rhythm normalizing action of melatonin than does α-tocopherol | tended to increase | ≥ 0.3 | 0.15 | decreased in an astaxanthin concentration-dependent manner | more potent than that of α-tocopherol | can suppress increases in lipid peroxides in the brain |  |  |  |
| COc1ccc2[nH]cc(CCNC(C)=O)c2c1 [melatonin, reference compound] |  |  |  | tendency toward a decrease in the ratio of activity in the light period |  |  |  |  |  |  |  |  |  |  |
| Cc1c(C)c2c(c(C)c1O)CC[C@@](C)(CCC[C@H](C)CCC[C@H](C)CCCC(C)C)O2 [α-tocopherol, reference compound] |  |  |  |  |  |  |  |  |  |  |  | no effect of enhancing the circadian rhythm normalizing action of melatonin | no effect of enhancing the circadian rhythm normalizing action of melatonin | slight enhancive effect |

Reference: patent US7001611B2, “Compositions normalizing circadian rhythm” (Suntory Limited, priority 2000, dated 2006)
